Laboratory results reported in patent US5817692A, “Endoperoxides useful as antiparasitic agents” (priority 1996, dated 1998).
Like-named read-outs stand apart in the source and are kept apart here.

Tests used:
Format in all cases: cell-based
Toxoplasma gondii = experiment: inhibition of intracellular replication of T. gondii in infected L929 cells, uracil incorporation assay; set-up: Activity, Mean: unit not given here; conditions: for Activity, Mean: uracil incorporation; for inhibition at 0.1 µM / inhibition at 1 µM / inhibition at 10 µM / inhibition at 50 µM: Toxoplasma gondii, L929, read-out: Activity, % of control (inhibition)
Description: Toxoplasma gondii is the causative agent of cerebral toxoplasmic encephalitis, an AIDS-related opportunistic infection. The biological activity of the endoperoxide JHU 2886 of the present invention was measured against Toxoplasma gondii cultured in L929 cells. The inhibitory activity of the synthetic organic endoperoxide was tested by measuring the intracellular replication of T. gondii in infected L929 cells. The inhibition of the intracellular replication of T. gondii was determined using the uracil incorporation assay (20). […] This compound is referred to as JHU 2886 in Table 1. In this experiment atovaquone and artemisinin were used as positive controls. Atovaquone is a broad-spectrum anti-infective drug having antimalarial and antitoxoplasmosis activity (19). | measured using the MTT assay (Promega kit) and inhibition of the | intracellular replication of T. gondii was determined using the uracil | incorporation assay.

Plasmodium falciparum = experiment: antimalarial activity, tritiated-hypoxanthine incorporation assay in human red blood cells; conditions: Erythrocyte, read-out: IC50 (inhibition of 50% of the replication of Plasmodium falciparum)
Description: (§1) The protozoan Plasmodium falciparum is a causative agent of malaria, the single most critical infectious disease of mankind. The antimalarial activity of the endoperoxides was determined according to the method of Desjardins et al. (16) as modified by Milhous et al. (17). Briefly, the antimalarial activity of the endoperoxides was tested in a tritiated-hypoxanthine incorporation assay by determining the concentration of the test compound needed to inhibit 50% of the replication of Plasmodium falciparum (IC50) in human red blood cells.
It is particularly noted that JHU 2886 has an excellent therapeutic index (ratio of activity to toxicity). At 1 μM, JHU 2886 has a therapeutic index of 70/0, whereas at the same concentration artimisinin has a therapeutic index of 76/10 (7.6), and atovaquone has a therapeutic index of only 95/17 (5.6). […] The first two compounds are known while the following five are being disclosed for the first time. […] Compounds of this formula wherein Ar is p-FCH2 Ph or p-HOCH2 Ph and X is CH2 are also expected to be particularly useful. […]

P. falciparum NF54 = experiment: antimalarial activity, P. falciparum NF54 parasites in vitro; conditions: Plasmodium falciparum; P. falciparum NF54 parasites in vitro; read-out: Antimalarial Activity IC50
Description: as §1
Tables 4 and 5 show the structures and antimalarial activities of unsaturated and saturated bicyclic [2.2.2] endoperoxides of the invention. Compounds of this formula wherein R and R' are identical are particularly preferred. It is expected that compounds wherein R and R' are selected from the groups [drawing 33] will be especially useful. […]

L929 cells = experiment: cytotoxicity to L929 cells, MTT assay (viability and replication); set-up: Toxicity, Mean: unit not given here; conditions: L929 cells; for Toxicity, Mean: MTT; for inhibition at 0.1 µM / inhibition at 1 µM / inhibition at 10 µM / inhibition at 50 µM: Mus musculus, read-out: Toxicity, % of control (inhibition)
Description: Toxoplasma gondii is the causative agent of cerebral toxoplasmic encephalitis, an AIDS-related opportunistic infection. The biological activity of the endoperoxide JHU 2886 of the present invention was measured against Toxoplasma gondii cultured in L929 cells.
More specifically, the cytotoxicity of synthetic organic endoperoxide JHU 2886 was tested in L929 cells by measuring the viability and replication of exposed cells. The cytotoxicity of the compound to the cultured cells was measured using the MTT assay (Promega kit), according to the procedure of Carmichael et al. (18). MTT is an abbreviation for [3-(4,5-dimethylthiazol-2-yl)-2,5-dephenyltetrazolium bromide].
This compound is referred to as JHU 2886 in Table 1. In this experiment atovaquone and artemisinin were used as positive controls. Atovaquone is a broad-spectrum anti-infective drug having antimalarial and antitoxoplasmosis activity (19).
^1 The cytotoxicity of each compound for the cultured cells was
measured using the MTT assay (Promega kit) and inhibition of the […]

C[C@@H]1CC[C@H]2[C@@H](C)C(=O)O[C@@H]3O[C@@]4(C)CC[C@@H]1[C@]32OO4 [Artemisinin]
therapeutic index (ratio of activity to toxicity), quotient (Toxoplasma gondii; 1 μM, T. gondii activity / L929 toxicity): 7.6
Activity, Score (Toxoplasma gondii; 24 hours, dose 0.1 μM): 2 (>20%-≤40%)
Activity, Mean (Toxoplasma gondii; 24 hours, dose 0.1 μM): 10106
Activity, Score (Toxoplasma gondii; 24 hours, dose 1.0 μM): 4 (>70%-≤90%)
Activity, Mean (Toxoplasma gondii; 24 hours, dose 1.0 μM): 3467
Activity, Score (Toxoplasma gondii; 24 hours, dose 10.0 μM): 4 (>70%-≤90%)
Activity, Mean (Toxoplasma gondii; 24 hours, dose 10.0 μM): 3470
Activity, Score (Toxoplasma gondii; 24 hours, dose 50.0 μM): 4 (>70%-≤90%)
Activity, Mean (Toxoplasma gondii; 24 hours, dose 50.0 μM): 33322
Activity, Score (Toxoplasma gondii; 48 hours, dose 0.1 μM): 1 (≤20%)
Activity, Mean (Toxoplasma gondii; 48 hours, dose 0.1 μM): 15440
Activity, Score (Toxoplasma gondii; 48 hours, dose 1.0 μM): 3 (>40%-≤70%)
Activity, Mean (Toxoplasma gondii; 48 hours, dose 1.0 μM): 6101
Activity, Score (Toxoplasma gondii; 48 hours, dose 10.0 μM): 4 (>70%-≤90%)
Activity, Mean (Toxoplasma gondii; 48 hours, dose 10.0 μM): 4225
Activity, Score (Toxoplasma gondii; 48 hours, dose 50.0 μM): 4 (>70%-≤90%)
Activity, Mean (Toxoplasma gondii; 48 hours, dose 50.0 μM): 4167
Activity, Score (Toxoplasma gondii; 72 hours, dose 0.1 μM): 0
Activity, Mean (Toxoplasma gondii; 72 hours, dose 0.1 μM): 8253
Activity, Score (Toxoplasma gondii; 72 hours, dose 1.0 μM): 4 (>70%-≤90%)
Activity, Mean (Toxoplasma gondii; 72 hours, dose 1.0 μM): 1976
Activity, Score (Toxoplasma gondii; 72 hours, dose 10.0 μM): 4 (>70%-≤90%)
Activity, Mean (Toxoplasma gondii; 72 hours, dose 10.0 μM): 783
Activity, Score (Toxoplasma gondii; 72 hours, dose 50.0 μM): 4 (>70%-≤90%)
Activity, Mean (Toxoplasma gondii; 72 hours, dose 50.0 μM): 813
inhibition at 0.1 µM (Toxoplasma gondii; 24 hours, dose 0.1 μM): 29.6%
inhibition at 1 µM (Toxoplasma gondii; 24 hours, dose 1.0 μM): 75.8%
inhibition at 10 µM (Toxoplasma gondii; 24 hours, dose 10.0 μM): 75.8%
inhibition at 50 µM (Toxoplasma gondii; 24 hours, dose 50.0 μM): 76.8%
inhibition at 0.1 µM (Toxoplasma gondii; 48 hours, dose 0.1 μM): 10.4%
inhibition at 1 µM (Toxoplasma gondii; 48 hours, dose 1.0 μM): 64.6%
inhibition at 10 µM (Toxoplasma gondii; 48 hours, dose 10.0 μM): 75.5%
inhibition at 50 µM (Toxoplasma gondii; 48 hours, dose 50.0 μM): 75.8%
inhibition at 0.1 µM (Toxoplasma gondii; 72 hours, dose 0.1 μM): -14.1%
inhibition at 1 µM (Toxoplasma gondii; 72 hours, dose 1.0 μM): 72.7%
inhibition at 10 µM (Toxoplasma gondii; 72 hours, dose 10.0 μM): 89.2%
inhibition at 50 µM (Toxoplasma gondii; 72 hours, dose 50.0 μM): 88.8%
IC50 (Plasmodium falciparum): 11 nM
IC50 (P. falciparum NF54): 11 nM
Toxicity, Score (L929 cells; 24 hours, dose 0.1 μM): 1 (≤20%)
Toxicity, Mean (L929 cells; 24 hours, dose 0.1 μM): 0.103
Toxicity, Score (L929 cells; 24 hours, dose 1.0 μM): 1 (≤20%)
Toxicity, Mean (L929 cells; 24 hours, dose 1.0 μM): 0.101
Toxicity, Score (L929 cells; 24 hours, dose 10.0 μM): 1 (≤20%)
Toxicity, Mean (L929 cells; 24 hours, dose 10.0 μM): 0.104
Toxicity, Score (L929 cells; 24 hours, dose 50.0 μM): 1 (≤20%)
Toxicity, Mean (L929 cells; 24 hours, dose 50.0 μM): 0.110
Toxicity, Mean (L929 cells; 48 hours, dose 0.1 μM): 0.213
Toxicity, Score (L929 cells; 48 hours, dose 1.0 μM): 1 (≤20%)
Toxicity, Mean (L929 cells; 48 hours, dose 1.0 μM): 0.205
Toxicity, Score (L929 cells; 48 hours, dose 10.0 μM): 1 (≤20%)
Toxicity, Mean (L929 cells; 48 hours, dose 10.0 μM): 0.195
Toxicity, Score (L929 cells; 48 hours, dose 50.0 μM): 1 (≤20%)
Toxicity, Mean (L929 cells; 48 hours, dose 50.0 μM): 0.193
Toxicity, Mean (L929 cells; 72 hours, dose 0.1 μM): 0.460
Toxicity, Score (L929 cells; 72 hours, dose 1.0 μM): 1 (≤20%)
Toxicity, Mean (L929 cells; 72 hours, dose 1.0 μM): 0.394
Toxicity, Score (L929 cells; 72 hours, dose 10.0 μM): 1 (≤20%)
Toxicity, Mean (L929 cells; 72 hours, dose 10.0 μM): 0.354
Toxicity, Score (L929 cells; 72 hours, dose 50.0 μM): 2 (>20%-≤40%)
Toxicity, Mean (L929 cells; 72 hours, dose 50.0 μM): 0.348
inhibition at 0.1 µM (L929 cells; 24 hours, dose 0.1 μM): 8.56%
inhibition at 1 µM (L929 cells; 24 hours, dose 1.0 μM): 10.3%
inhibition at 10 µM (L929 cells; 24 hours, dose 10.0 μM): 7.67%
inhibition at 50 µM (L929 cells; 24 hours, dose 50.0 μM): 2.36%
inhibition at 0.1 µM (L929 cells; 48 hours, dose 0.1 μM): 0%
inhibition at 1 µM (L929 cells; 48 hours, dose 1.0 μM): 3.75%
inhibition at 10 µM (L929 cells; 48 hours, dose 10.0 μM): 8.44%
inhibition at 50 µM (L929 cells; 48 hours, dose 50.0 μM): 9.53%
inhibition at 0.1 µM (L929 cells; 72 hours, dose 0.1 μM): 0%
inhibition at 1 µM (L929 cells; 72 hours, dose 1.0 μM): 9.97%
inhibition at 10 µM (L929 cells; 72 hours, dose 10.0 μM): 19.2%
inhibition at 50 µM (L929 cells; 72 hours, dose 50.0 μM): 20.6%
